The test system of data set [1] is cells. In words: Toxicity to cells, 3 hours at 37° C., in air and in N2. The class given is cell-based. To be noted: for CC90: read-out: CN2; for CAir/CN2: ratio of toxic concentrations, air to N2, 180 min. The procedure:
(§1) ^(a) Toxicity is 3 hours at 37° C. Concentrations are those
(§2) required for a surviving fraction of 10^-1. Drugs were made up in ful
(§3) growth medium (buffered with bicarbonate) just before addition to cells.

Assay in data set [2]: as above
It counts as cell-based. To be noted: air; concentration required for a surviving fraction of 10^-1; 3 hours at 37° C.; full growth medium (bicarbonate); read-out: CAir. The procedure: as §1, §2, §3

The nature of data set [3]: Maximum tolerated dose (MTD). To be noted: for MTD: mouse, in vivo, ip, intraperitoneal, b203: maximum dose used was the MTD, read-out: maximum tolerated dose (MTD) = maximum dose used in Table 2. It counts as in vivo, C3H mice. The procedure:
(§4) (a) C3H mice in which the KHT tumour had been implanted subcutaneously were administered RB-6145 (Example 2) intraperitoneally before treatment with radiation. The time before such treatment at which the drug was administered was such that maximum enhancement was effected. The results of such treatment are set out in Table 1 with comparison to misonidazole (MISO), etanidazole (SR 2508) and pimonidazole (Ro 03-8799). In Table 2 comparison is made with 1-(2-nitro-1-imidazolyl)-3-(1-aziridino)-2-propanol (RSU-1069). All compounds were administered in phosphate buffered saline (PBS) at pH 7.4 except RB-6145 which was administered in PBS at pH 5.4.
The surviving fraction for 10 Gy alone is 3×10^-2. The maximum does used was the maximum tolerated dose (MTD).

In another data set the test system is KHT tumour cells. In words: Survival of KHT tumour cells after sensitiser i.p. plus 10 Gy X-rays (KHT tumour implanted subcutaneously in C3H mice). It counts as in vivo. The procedure:
In Table 2 comparison is made with 1-(2-nitro-1-imidazolyl)-3-(1-aziridino)-2-propanol (RSU-1069). All compounds were administered in phosphate buffered saline (PBS) at pH 7.4 except RB-6145 which was administered in PBS at pH 5.4.
The maximum does used was the maximum tolerated dose (MTD).

The next data set relates to KHT tumour. Kind of data set: In vivo sensitisation, scored against RSU1069 and MISO. As to conditions: scoring system relative to RSU1069 and MISO. Also on record: species or system C3H mice; key to the marks not given beside the values. The procedure:
as §4

For data set [4], the system named is cells. Kind of data set: Sensitisation of cells, C1.6 (drugs made up in PBS at pH 7.4). The class given is cell-based. To be noted: drugs made up in PBS at pH 7.4 just before addition to cells. The text has this:
^(b) Drugs made up in PBS at pH 7.4 just before addition to cells.

The mark [5] stands for this setting: N2, concentration required for a surviving fraction of 10^-1, 3 hours at 37° C., full growth medium (bicarbonate).
[6] abbreviates: Table 1, sensitiser at a dose of 200 mg/kg and 10 Gy X-rays, NONE = 1.0.
Setting [7] is: Table 1, sensitiser at a dose of 200 mg/kg and 10 Gy X-rays, intraperitoneal.

Where two headings read alike, the source gives them in different places.

With `O=[N+]([O-])c1nccn1CC(O)CNCCF` (stereo not drawn) [RB-6159, 1-(2-Nitro-1-imidazolyl)-3-(2-fluoroethylamino)-2-propanol], the CC90 in the data set with cells [1] (setting [5]) is 2500 µM. Also, the CAir/CN2 in the data set on cells [1] turned out to be 14. The CC90 at 3 h in data set [2] was 35000 µM.

Consider `O=[N+]([O-])c1nccn1CC(O)CN1CC1` (stereo not drawn) [RSU-1069, 1-(2-nitro-1-imidazolyl)-3-(1-aziridino)-2-propanol], for which, in data set [3], the MTD was 80 mg/kg. In addition, the surviving fraction was 7.6 × 10^-3 in the data set with KHT tumour cells (8 mg/kg), 4.0 × 10^-3 with KHT tumour cells (30 mg/kg), 3.2 × 10^-3 with KHT tumour cells (50 mg/kg) and 1.6 × 10^-3 in the data set on KHT tumour cells (80 mg/kg).

For `O=[N+]([O-])c1nccn1CC(O)CN1CCCCC1` (stereo not drawn) [Ro03-8799, pimonidazole], in the data set with KHT tumour cells (setting [6]), the enhancement ratio is given as 1.0. In addition, the surviving fraction in the data set with KHT tumour cells (setting [7]) is 3 × 10^-2.

With `O=[N+]([O-])c1nccn1CC(O)CNCCCl` (stereo not drawn) [RB-6144, 1-(2-Nitro-1-imidazolyl)-3-(2-chloroethylamino)-2-propanol], the in vivo sensitisation entry in the data set with KHT tumour was “++”. Moreover, the EC (enhancement ratio 1.6) in the data set on cells [4] is 250 µM. For the same molecule, in the data set on cells [1] (3 h), the CC90 was 350 µM. Further, the CAir/CN2 in the data set on cells [1] stood at 15. For the same molecule, in data set [2], the CC90 at 3 h was 5000 µM.

Consider `O=[N+]([O-])c1nccn1CC(O)CNCCBr` (stereo not drawn) [RB-6145, 1-(2-Nitro-1-imidazolyl)-3-(2-bromoethylamino)-2-propanol], for which the in vivo sensitisation result in the data set on KHT tumour is “++++”. For the same molecule, in the data set with cells [4], the EC (enhancement ratio 1.6) amounted to 150 µM. In data set [3] (Table 2), the “doses that can be used compared with RSU-1069” value is “Much higher doses of RB-6145 can be used”. The MTD in data set [3] turned out to be 300 mg/kg. For the same molecule, the CC90 in the data set on cells [1] (3 h) turned out to be 90 µM. For the same molecule, the CAir/CN2 with cells [1] is recorded as 25. For the same molecule, the CC90 at 3 h in data set [2] came out at 2300 µM. The “dose-for-dose sensitisation compared with RSU-1069” value in the data set on KHT tumour cells (10 Gy X-rays) is recorded as “on a dose-for-dose basis it is the same as RSU-1069 as a sensitiser”. Moreover, in the data set on KHT tumour cells (setting [6]), the enhancement ratio turned out to be 2.7. Also, the surviving fraction in the data set on KHT tumour cells (setting [7]) is given as 1.8 × 10^-3; with KHT tumour cells (Table 2, RB-6145 0.13 mmol kg^-1 (50 mg/kg) and 10 Gy X-rays), 7.6 × 10^-3; in the data set with KHT tumour cells (Table 2, RB-6145 0.27 mmol kg^-1 (100 mg/kg) and 10 Gy X-rays) it was 5.2 × 10^-3; with KHT tumour cells (Table 2, RB-6145 0.53 mmol kg^-1 (200 mg/kg) and 10 Gy X-rays), 1.8 × 10^-3; in the data set with KHT tumour cells (Table 2, RB-6145 0.80 mmol kg^-1 (300 mg/kg) and 10 Gy X-rays, 10 Gy alone 3×10^-2), 1.4 × 10^-3.

Take `COCC(O)Cn1ccnc1[N+](=O)[O-]` (stereo not drawn) [MISO, misonidazole]: the enhancement ratio in the data set with KHT tumour cells (mouse, in vivo, 200 mg/kg) stood at 1.5. Also, the surviving fraction with KHT tumour cells (mouse, in vivo, ip, 200 mg/kg) is reported as 1.2 × 10^-2.

`O=[N+]([O-])c1nccn1CC(O)CNCCO` (stereo not drawn) [RSU-1137, 1-(2-nitro-1-imidazolyl)-3-(2-hydroxyethylamino)-2-propanol, reference compound]: in the data set on KHT tumour, the in vivo sensitisation result is “++”. In addition, the EC (enhancement ratio 1.6) in the data set with cells [4] turned out to be 450 µM. Also, the CC90 in the data set with cells [1] (setting [5]) stood at 3500 µM. In the data set with cells [1], the CAir/CN2 is on record as 20. In data set [2], the CC90 at 3 h turned out to be 70000 µM.

On to `O=[N+]([O-])c1nccn1CC(O)CNCCI` (stereo not drawn) [RB-6146, 1-(2-Nitro-1-imidazolyl)-3-(2-iodoethylamino)-2-propanol], for which the EC (enhancement ratio 1.6) in the data set with cells [4] came out at 300 µM. The CC90 in the data set with cells [1] (3 h) was found to be 80 µM. Besides, in the data set with cells [1], the CAir/CN2 is 30. In data set [2], the CC90 at 3 h was determined as 2400 µM.

Consider `O=C(Cn1ccnc1[N+](=O)[O-])NCCO` [SR 2508, etanidazole], for which, in the data set on KHT tumour cells (setting [6]), the enhancement ratio worked out at 1.6. The surviving fraction with KHT tumour cells (setting [7]) was 1.1 × 10^-2.

For the origin of these results see US5098921A, “Nitro-substituted aromatic or hetero-aromatic compounds for use in cancer treatment” (National Research Development Corporation, priority 1987, dated 1992).
